Patent publication US9567384B2, “Phosphorylation on the Thr-248 and/or Thr-250 residues of transcription factor E2F4 as a therapeutic target in pathological processes associated with somatic polyploidy” (CONSEJO SUPERIOR DE INVESTIGACIONES CIENTIFICAS (CSIC), priority 2011, dated 2017)

Assays:
E2F4 = test: Western blot with anti-phosphoThr antibodies in extracts immunoprecipitated with anti-E2F4 antibodies; format: cell-based, chick; details: 100 ng/ml NGF
cMyc gene promoter = test: Luciferase assay, cMyc gene promoter reporter in chick embryo retinal cell neurogenic cultures E6; format: cell-based
Method: (§1) These cells respond to NGF by inducing cell cycle reactivation that leads to somatic tetraploidy (endoreduplication) (Morillo et al., 2010). A. Western blot with anti-active p38^MAPK (P-p38^MAPK) and anti-p38^MAPK in nuclear extracts of the mentioned neurogenic cultures treated for the indicated time with 100 ng/ml NGF. The normalized ratios between P-p38^MAPK and p38^MAPK levels are indicated at the bottom. B. Immunohistochemical staining with anti-active p38^MAPK antibodies (P-p38^MAPK) in the mentioned neurogenic cultures treated with 100 ng/ml NGF for 20 minutes. The nuclei were labeled with bisbenzimide (Bisb.). […] C. Luciferase assay in extracts of chick embryo retinal cell neurogenic cultures E6 transfected with a plasmid expressing luciferase under the control of cMyc gene promoter, known for its response to E2F during G1/S transition, and another plasmid with the constitutive expression of β-galactosidase. The luciferase/β-galactosidase ratio values are depicted as “luciferase activity”. […] This effect is blocked with selective p38^MAPK inhibitor SB203580 (used at 5 μM). D. Incorporation of BrdU to indicate entry into S phase in chick embryo retinal cell neurogenic cultures E6.

[1] = system: chick embryo retinal cell neurogenic cultures E6; test: Incorporation of BrdU (entry into S phase) in chick embryo retinal cell neurogenic cultures E6; format: cell-based
Method: as §1
A. Luciferase activity analyzed as described in FIG. 2C. […] Based on the results shown in panels A and B, it is deduced that p38^MAPK acts exclusively through Thr261/Thr263 residues. C. Luciferase activity analyzed as described in FIG. 2C.

p38^MAPK = test: Immunohistochemical staining with anti-active p38MAPK antibodies in neurogenic cultures; format: cell-based, chick; details: 100 ng/ml NGF for 20 minutes
Method: as §1

[2] = expression of E2F4-ND, 100 ng/ml NGF

**Q.** What does the source list for C[S+]([O-])c1ccc(-c2nc(-c3ccncc3)c(-c3ccc(F)cc3)[nH]2)cc1 (stereo not drawn) [SB203580, reference compound]?
**A.** effect on NGF-promoted phosphorylation on threonine residues of E2F4 (E2F4; SB203580 used at 5 μM): inhibits such phosphorylation; effect on NGF-induced cMyc promoter activation (luciferase activity) (cMyc gene promoter; 100 ng/ml NGF, SB203580 used at 5 μM): blocked; effect on NGF-induced increase in the proportion of cells in S phase (BrdU) ([1]; 100 ng/ml NGF, inhibitor used at 5 μM): blocked

**Q.** What does the source list for “E2F4-CA: constitutively active form of chicken E2F4 characterized by Thr261Glu/Thr263Glu substitutions”?
**A.** cMyc promoter activity (luciferase activity) (cMyc gene promoter; expression of E2F4-CA in the presence of SB203580 5 μM): can be observed even in the presence; cMyc promoter activity (luciferase activity) (cMyc gene promoter; expression of E2F4-CA, transfected cells): induces cMyc promoter activity; incorporation of BrdU ([1]; cells transfected with E2F4-CA): increases significantly; incorporation of BrdU ([1]; cells transfected with E2F4-CA in the presence of SB203580 5 μM): can be observed even in the presence; mimicking the effect of NGF on retinal neurons (cell cycle reactivation) ([1]; summary of FIG. 4A, FIG. 4B (luciferase and BrdU)): capable of mimicking the effect of NGF

**Q.** What does the source list for “E2F4-ND: negative dominant form of chicken E2F4 characterized by Thr261Ala/Thr263Ala substitutions, preventing phosphorylation by p38MAPK”?
**A.** effect of NGF on cMyc promoter activity (luciferase activity) (cMyc gene promoter; [2]): prevents the effect; effect of NGF on the incorporation of BrdU [1, 2]: prevents the effect; effect of NGF on the cell cycle in neurogenic retinal cultures ([1]; summary of FIG. 4C, FIG. 4D (luciferase and BrdU)): capable of inhibiting the effect of NGF

**Q.** nerve growth factor [NGF] was tested. Which “phosphorylation on threonine residues of E2F4” value (E2F4) did it give?
**A.** increase in phosphorylation on threonine residues

**Q.** What about the “active p38MAPK (P-p38MAPK) signal in the nucleus” value (p38^MAPK) of the same compound?
**A.** signal increase

**Q.** What about the “luciferase activity (luciferase/β-galactosidase ratio), cMyc promoter” value (cMyc gene promoter; 100 ng/ml NGF) of the same compound?
**A.** entails cMyc promoter activation

**Q.** What about the “incorporation of BrdU, proportion of cells in S phase” value ([1]; 100 ng/ml NGF) of the same compound?
**A.** an increase in the proportion of cells in S phase
